Experimental data as given in patent US9468693B2, “Labeled molecular imaging agents and methods of use” (GENERAL ELECTRIC COMPANY, priority 2014, dated 2016).

Molecular target: T1, cystine/glutamate transporter (Homo sapiens, UniProt Q9UPY5)
T1 construct: endogenous in cells; host or cells: SKOV3 cells treated with 100 uM DEM (the paragraph also says 'DEM treated EL4 cells')
T1 sequence (Q9UPY5 1-501): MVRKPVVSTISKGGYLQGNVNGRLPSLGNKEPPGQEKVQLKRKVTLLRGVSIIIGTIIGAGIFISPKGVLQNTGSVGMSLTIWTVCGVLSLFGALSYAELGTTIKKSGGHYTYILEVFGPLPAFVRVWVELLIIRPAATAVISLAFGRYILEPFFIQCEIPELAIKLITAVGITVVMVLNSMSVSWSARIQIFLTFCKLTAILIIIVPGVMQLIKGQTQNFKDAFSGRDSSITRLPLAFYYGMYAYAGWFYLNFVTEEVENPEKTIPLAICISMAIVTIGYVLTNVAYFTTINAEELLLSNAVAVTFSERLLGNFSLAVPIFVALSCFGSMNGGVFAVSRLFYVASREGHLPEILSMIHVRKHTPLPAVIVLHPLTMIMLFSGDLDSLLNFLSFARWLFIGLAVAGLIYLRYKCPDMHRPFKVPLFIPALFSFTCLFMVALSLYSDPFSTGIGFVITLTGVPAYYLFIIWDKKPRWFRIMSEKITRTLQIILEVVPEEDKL
T1 sequence (P08195 2-529 partner): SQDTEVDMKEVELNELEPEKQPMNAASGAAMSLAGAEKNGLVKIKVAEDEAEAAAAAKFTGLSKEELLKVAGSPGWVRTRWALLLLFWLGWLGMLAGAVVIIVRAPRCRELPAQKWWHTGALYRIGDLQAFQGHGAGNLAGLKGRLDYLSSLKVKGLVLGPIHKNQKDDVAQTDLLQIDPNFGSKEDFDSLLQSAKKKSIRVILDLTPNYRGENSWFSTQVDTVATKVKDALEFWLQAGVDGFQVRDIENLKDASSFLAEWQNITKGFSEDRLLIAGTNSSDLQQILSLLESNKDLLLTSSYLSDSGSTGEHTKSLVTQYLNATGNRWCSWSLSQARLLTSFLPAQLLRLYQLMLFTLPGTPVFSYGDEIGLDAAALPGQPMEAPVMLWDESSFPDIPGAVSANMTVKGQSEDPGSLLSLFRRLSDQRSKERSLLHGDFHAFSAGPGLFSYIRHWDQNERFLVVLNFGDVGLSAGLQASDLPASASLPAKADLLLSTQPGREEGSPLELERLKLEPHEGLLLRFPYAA
Assay: inhibition of 3H-L-Glu uptake in DEM treated cells
Assay type: cell-based
Settings: 0.5 h; 1 mM agent; 30 minutes uptake at room temperature; cells pretreated with 100 μM DEM overnight; triplicate; lower = inhibition of the transporter; read-out: % of contro1 3H-Glu uptake
Method: Following are non-limiting examples used to illustrate various embodiments of the imaging agents and methods of use. As such Table 1 provides examples of the non-labelled analog of the final product. Also provided are measurements of inhibition response of ^3H-L-GLU (control) uptake in DEM treated EL4 cells. As such 96 well plate were seeded with 100,000 SKOV3 cells/well in complete growth media (McCoy's+10% Fetal Bovine Serum(FBS)) and incubated overnight at 37° C. The media was changed to 100 μM DEM and again incubated overnight at 37° C. Wash 1× with Hank's Balanced Salt Solution (HBSS) Room Temperature and assayed 50 μl of each agent (Table 1) in triplicate by incubating for 30 minutes (uptake) at room temperature. It was then washed twice with HBSS and 200 μl MicroScint20 added for counting. The protocol used 200 uCi 3H-Glu per well. The mix and agent and ^3H-Glu provided a final concentration of 200 uCi and 1 mM agent. […] As such lower response is indicative of inhibition of the transporter. As such numbers below approximately 30% is equivalent to 70% inhibition and are considered good candidates for pharmaceutical agents.

SMILES | remaining activity at 1000 µM [%]
N[C@@H](CCC(=O)N1C[C@H](OCc2ccccc2)CC1C(=O)O)C(=O)O (some centres unmarked) [1p] | 50
N[C@@H](CCC(=O)N1C[C@@H](c2ccccc2)C[C@H]1C(=O)O)C(=O)O [1i] | 46.2
N[C@@H](CCC(=O)N1C[C@@H](OCc2ccccc2)CC1C(=O)O)C(=O)O (some centres unmarked) [1o] | 43.2
N[C@@H](CCC(=O)N1C[C@H](O)C[C@H]1C(=O)O)C(=O)O [1c] | 73.6
N[C@@H](CCC(=O)N1C[C@H](Oc2ccccc2)C[C@H]1C(=O)O)C(=O)O [1l] | 36.6
N[C@@H](CCC(=O)N1C[C@H](F)C[C@H]1C(=O)O)C(=O)O [1d] | 51.8
N[C@@H](CCC(=O)N1C[C@H](Cc2ccccc2)C[C@H]1C(=O)O)C(=O)O [1k] | 30.9
N[C@@H](CCC(=O)N1CCC[C@@H]1C(=O)O)C(=O)O [1b] | 84
N[C@@H](CCC(=O)N1C[C@H](OCc2ccccc2)C[C@H]1C(=O)O)C(=O)O [1m] | 14.9
N[C@@H](CCC(=O)N1C[C@H](OCc2ccc(COCCF)cc2)C[C@H]1C(=O)O)C(=O)O [1r] | 10.1
N[C@@H](CCC(=O)N1C[C@@H](Oc2ccccc2)C[C@H]1C(=O)O)C(=O)O [1j] | 33
N[C@@H](CCC(=O)N1C[C@H](c2ccccc2)C[C@H]1C(=O)O)C(=O)O [1h] | 52.3
N[C@@H](CCC(=O)N1C[C@H](O)C[C@@H]1C(=O)O)C(=O)O [1g] | 94.7
CCOc1cccc(CO[C@@H]2C[C@@H](C(=O)O)N(C(=O)CC[C@H](N)C(=O)O)C2)c1 [1q] | 14.5
N[C@@H](CCC(=O)N1CCC[C@H]1C(=O)O)C(=O)O [1a] | 46.3
N[C@@H](CCC(=O)N1C[C@@H](O)C[C@@H]1C(=O)O)C(=O)O [1e] | 74
N[C@@H](CCC(=O)N1C[C@@H](OCc2ccccc2)C[C@H]1C(=O)O)C(=O)O [1n] | 26.2
N[C@@H](CCC(=O)N1C[C@@H](O)C[C@H]1C(=O)O)C(=O)O [1f] | 30.8

Same assay, conditions: comparison of the 2S,4R-hydroxyproline scaffold with the other stereoisomers

SMILES | uptake compared to structures 1n, 1o, or 1p (hydroxyproline stereoisomers)
N[C@@H](CCC(=O)N1C[C@H](OCc2ccccc2)C[C@H]1C(=O)O)C(=O)O [1m] | improved uptake

Molecular target: T2, oxidative stress transporter (Homo sapiens, UniProt Q9UPY5)
T2 sequence (Q9UPY5 1-501): T1 sequence (Q9UPY5 1-501)
T2 sequence (P08195 1-529 partner): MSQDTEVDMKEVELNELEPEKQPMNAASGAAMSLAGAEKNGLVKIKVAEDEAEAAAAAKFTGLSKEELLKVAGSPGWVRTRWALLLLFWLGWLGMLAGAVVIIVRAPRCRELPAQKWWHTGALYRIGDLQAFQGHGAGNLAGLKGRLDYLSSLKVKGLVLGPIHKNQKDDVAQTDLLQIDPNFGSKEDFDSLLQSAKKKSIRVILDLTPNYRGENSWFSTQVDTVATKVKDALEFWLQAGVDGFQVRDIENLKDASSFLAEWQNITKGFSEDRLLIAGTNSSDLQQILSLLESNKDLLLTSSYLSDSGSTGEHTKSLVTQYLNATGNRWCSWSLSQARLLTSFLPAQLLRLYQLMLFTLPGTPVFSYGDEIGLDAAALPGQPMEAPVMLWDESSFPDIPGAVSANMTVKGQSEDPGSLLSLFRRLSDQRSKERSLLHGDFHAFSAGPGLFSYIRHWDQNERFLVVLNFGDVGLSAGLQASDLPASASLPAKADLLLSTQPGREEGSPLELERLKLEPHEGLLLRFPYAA
Assay: not given
Settings: as reported in U.S. patent application Ser. No. 13/234,210; cited from earlier work

SMILES | uptake via the oxidative stress transporter
N[C@@H](CCCCCC(=O)O)C(=O)O [aminosuberic acid] | good uptake
